Measured values: PMC10385579, “Design, Synthesis, and Biological Evaluation of Indole-2-carboxamides as Potential Multi-Target Antiproliferative Agents” (Pharmaceuticals, 2023)

System: Bcl-2
Experiment: Bcl-2 level assay in A-549 cells
Type: cell-based, human
Details: for Bcl-2 Conc: control 5; for Bcl-2 Fold Reduction: vs control
Procedure: Compounds Va and Vg were explored further for their impact on caspase-8, Bax, and Bacl-2 levels against a human epithelial cancer cell line (A-549) using doxorubicin as a reference. See Supplementary Materials. […]
4.2.8. Bcl-2inhibition assay
Mix all reagents thoroughly without foaming before use. Wash the microwells twice with approximately 300 μL Wash Buffer per well with thorough aspiration of microwell contents between washes. Take caution not to scratch the surface of the microwells. After the last wash, empty the wells and tap microwell strips on absorbent pad or paper towel to remove excess Wash Buffer. Use the microwell strips immediately after washing or place upside down on a wet absorbent paper for not longer than 15 minutes. […] Add 100 μL of Sample […]
Diluent in duplicate to all standard wells and to the blank wells. Prepare standard (1:2 dilution) in duplicate ranging from 32 ng/mL to 0.5 ng/mL. Add 100 μL of Sample Diluent, in duplicate, to the blank wells. Add 80 μL of Sample Diluent, in duplicate, to the sample wells. Add 20 μL of each Sample, in duplicate, to the designated wells. Add 50 μL of diluted biotin-conjugate to all wells, including the blank wells. Cover with a plate cover and incubate at room temperature, on a microplate shaker at 100 rpm if available, for 2 hours. Remove plate cover and empty the wells.
Wash microwell strips 3 times as described in step 2. Add 100 μL of diluted Streptavidin-HRP to all wells, including the blank wells. Cover with a plate cover and incubate at room temperature, on a microplate shaker at 100 rpm if available, for 1 hour. Remove plate cover and empty the wells.
Wash microwell strips 3 times as described in step 2. Proceed to the next step. Pipette 100 μl of mixed TMB Substrate Solution to all wells, including the blanks. Incubate the microwell strips at room temperature (18° to 25°C) for about 15 minutes, if available on a rotator set at 100 rpm.
Avoid direct exposure to intense light. The point, at which the substrate reaction is stopped, is often determined by the ELISA reader. Many ELISA readers record absorbance only up to 2.0
O.D. Therefore, the color development within individual microwells must be watched by the person running the assay and the substrate reaction stopped before positive wells are no longer properly detectable. Stop the enzyme reaction by quickly pipetting 100 μL of Stop Solution into each well, including the blank wells. It is important that the Stop Solution is spread quickly and uniformly throughout the microwells to completely inactivate the enzyme. Results must be read immediately after the Stop Solution is added or within one hour if the microwell strips are stored at 2 - 8°C in the dark. Read absorbance of each microwell on a spectrophotometer using 450 nm as the primary wavelength.

Compound	Bcl-2 Conc	Bcl-2 Fold Reduction
O=C(NCC(c1ccccc1)c1c(-c2ccccc2)[nH]c2ccccc12)c1cc2cc(Cl)ccc2[nH]1 (stereo not shown) [Compound Va, 5-Chloro-N-(2-phenyl-2-(2-phenyl-1H-indol-3-yl)ethyl)-1H-indole-2-carboxamide]	0.75 ng/mL	7
CO/C=C/c1c(C(=O)NCC(c2ccccc2)c2c(-c3ccccc3)[nH]c3ccccc23)[nH]c2ccc(Cl)cc12 (stereo not shown) [Compound Vg, (E)-5-Chloro-3-(2-methoxyvinyl)-N-(2-phenyl-2-(2-phenyl-1H-indol-3-yl)ethyl)-1H-indole-2-carboxamide]	0.85 ng/mL	6
